In patent publication US10414797B2, “Gelatinase inhibitors and use thereof” (Iproteos S.L, priority 2015, dated 2019):
Where a SMILES comes first, the peptide text is derived from it. [ ]: non-standard residue; d: D form. The star is where a group is joined. ξ: configuration not given here. Pro(trans-4-F) = O=C(O)[C@@H]1C[C@@H](F)CN1; NMeW = CN[C@@H](Cc1c[nH]c2ccccc12)C(=O)O; Benzoyl(3,5-F2) = O=C(c1cc(F)cc(F)c1)*; NMeIle(3ξ) = CCC(C)[C@H](NC)C(=O)O; NMeQ = CN[C@@H](CCC(N)=O)C(=O)O; NMeL = CN[C@@H](CC(C)C)C(=O)O; Dab = NCC[C@H](N)C(=O)O; Hexanoyl = CCCCCC(=O)*; Butyryl = CCCC(=O)*; Bz = O=C(c1ccccc1)*; NHOH = ON*

Assays:
Type in all cases: biochemical
MMP-9 [1] = target: MMP-9 (Homo sapiens, UniProt P14780); experiment: MMP-9 inhibition assay (fluorimetric, DQ gelatin substrate); conditions: recombinant MMP-9 (Merck-Millipore for examples 1 to 9 and comparative examples; Enzo for examples 10 to 16), DQ gelatin 50 μg/mL, 4 hours at room temperature, pH 7.6
Chain of MMP-9 (P14780 107-707 limits assumed): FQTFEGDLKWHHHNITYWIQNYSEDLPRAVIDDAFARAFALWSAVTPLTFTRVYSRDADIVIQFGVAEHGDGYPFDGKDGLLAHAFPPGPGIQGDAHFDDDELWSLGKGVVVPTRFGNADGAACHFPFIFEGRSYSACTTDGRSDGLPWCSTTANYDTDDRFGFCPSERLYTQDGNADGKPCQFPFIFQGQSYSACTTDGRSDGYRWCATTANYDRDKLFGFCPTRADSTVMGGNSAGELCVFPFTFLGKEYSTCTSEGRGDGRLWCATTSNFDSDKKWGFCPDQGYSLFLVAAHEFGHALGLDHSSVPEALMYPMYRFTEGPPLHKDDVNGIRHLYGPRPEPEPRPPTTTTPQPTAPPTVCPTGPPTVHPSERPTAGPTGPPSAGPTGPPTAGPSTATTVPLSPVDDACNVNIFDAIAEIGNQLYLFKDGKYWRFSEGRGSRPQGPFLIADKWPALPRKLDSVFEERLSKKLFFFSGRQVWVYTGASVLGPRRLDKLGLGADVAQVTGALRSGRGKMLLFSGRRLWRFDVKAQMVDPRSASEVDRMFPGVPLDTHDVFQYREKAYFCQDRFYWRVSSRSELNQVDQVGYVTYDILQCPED
Chain of MMP-9 (Homo sapiens, UniProt P14780) (P14780 107-707 limits assumed): as above
Experimental: (§1) All the experiments were done in 1× reaction buffer, which was obtained from a 10× reaction buffer solution. The content of the 10× reaction buffer was: 50 mL of 0.5 M Tris-HCl, 1.5 M NaCl, 50 mM CaCl2 and 2 mM sodium azide at pH 7.6. To obtain the 1× reaction buffer 4 mL of the 10× reaction buffer were diluted in 36 mL of H2O.
(§2) Recombinant MMP-9 expressed was obtained from Merck-Millipore (catalog number PF140-5UG, used in examples 1 to 9 and comparative examples) and Enzo (catalog number-SE360-0010, used in examples 10 to 16). DQ gelatin from pig skin fluorescein conjugated (MMP-9 substrate) was obtained from Life Technologies (catalog number E12055).
(§3) Preparation of the MMP-9 for the activity assay: MMP-9 was provided as a stock solution (0.1 mg/mL). The enzyme was diluted in 1× reaction buffer to a final concentration of 5 μg/mL.
(§4) Preparation of the DQ gelatin (substrate) solution for the activity assay: the solid form of the substrate was dissolved in water in order to obtain a stock solution of 1 mg/mL.
(§5) Procedure: The enzymatic assays were performed in 96-well microtiter plate, which allowed simultaneous monitoring of multiple reactions. For each reaction, 84.6 μL of 1× reaction buffer (pH 7.6), […] of MMP-9 (final concentration 85 ng/mL) and 2 μL of the corresponding new compound were added to each well. A stock solution of new compound was prepared in DMSO (100 mM), and dilutions were prepared from this stock solution with DMSO. Finally, to the mixture contained in each well 10 μL of the substrate were added (final concentration 50 μg/mL). The reaction was incubated for 4 hours at room temperature in an orbital shaker (100 rpm).
(§6) The inhibitory activity of the new compound was measured fluorimetrically. The excitation and emission wavelengths were 483 and 525 nm, respectively.
(§7) Inhibitory activity at several concentration points (ranging from 100 pM to 200 μM MMP) were measured for each compound. The inhibitory activity on MMP-2 and MMP-9 was calculated according to eq 1. For each new compound, the fluorescence in the presence (a) and in the absence (b) of the corresponding MMP was measured. The maximum fluorescence (0% inhibitory activity) was obtained from a sample of the corresponding MMP in the absence of inhibitory compounds. To estimate the inhibitory potency of the novel compounds, activities were plotted against the log concentration of the compound, adjusting to a sigmoid curve using GraphPad Prism software, and the IC50 value, defined as the concentration of compound required to inhibit 50% of the corresponding MMP activity, was determined from resulting curve.
(§8) a corresponds to fluorescence intensity in the presence of substrate+test compound+MMP
(§9) b corresponds to the fluorescence intensity in the presence of substrate+tested compound
(§10) c corresponds to the fluorescence intensity in the presence of substrate+MMP
(§11) d corresponds to the fluorescence intensity of the presence of substrate

MMP-1 = MMP-1 (Homo sapiens (Human), UniProt P03956); experiment: MMP-1 inhibition assay (fluorogenic peptide substrate); conditions: recombinant MMP-1 5.52 nM, Mca-PLGL-Dpa-AR-NH2 10 μM, 4 hours at room temperature; tested at 1, 10, 100 and 200 μM
Chain of MMP-1 (P03956 100-269): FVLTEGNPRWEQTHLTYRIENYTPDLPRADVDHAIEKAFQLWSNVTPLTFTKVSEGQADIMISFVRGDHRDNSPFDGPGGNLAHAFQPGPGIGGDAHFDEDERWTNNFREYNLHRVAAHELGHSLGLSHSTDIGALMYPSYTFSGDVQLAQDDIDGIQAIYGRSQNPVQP
Experimental: as §1
Recombinant MMP-1 expressed in E. Coli was obtained from Enzo Life Sciences (catalog number BML-SE180). Mca-PLGL-Dpa-AR-NH2 (fluorogenic peptide substrate) was obtained from R&D Systems (catalog number ES001).
Preparation of the MMP-1 for the activity assay: MMP-1 was provided as a stock solution (0.55 mg/mL). The enzyme was diluted in 1× reaction buffer to a final concentration of 276 nM.
MMP-1 peptide substrate was provided as a stock solution in DMSO (6 mM). For the assay, the substrate was diluted 1× reaction buffer to a concentration of 100 μM.
Procedure: The enzymatic assays were performed in 96-well microtiter plate, which allowed simultaneous monitoring of multiple reactions. For each reaction, 86 μL of 1× reaction buffer (pH 7.6), 2 μL of MMP-1 (final concentration 5.52 nM) and 2 μL of the corresponding new compound were added to each well. A stock solution of the new compound was prepared in DMSO (100 mM), and dilutions were prepared from this stock solution with DMSO. Finally, to the mixture contained in each well 10 μL of the substrate were added (final concentration 10 μM). The reaction was incubated for 4 hours at room temperature in an orbital shaker (100 rpm).
(§12) The inhibitory activity of the new compound was measured fluorimetrically. The excitation and emission wavelengths were 320 and 405 nm, respectively.
(§13) Inhibitory activity at several concentration points (1, 10, 100 and 200 μM) were measured for each compound. The inhibitory activity on MMP-1, MMP-3 and MMP-7 was calculated according to eq 1 and The IC50 value was calculated as explained above for MMP-2 and MMP-9.

MMP-7 = MMP-7 (Homo sapiens (Human), UniProt P09237); experiment: MMP-7 inhibition assay (fluorogenic peptide substrate); conditions: recombinant MMP-7 8.3 nM, Mca-PLGL-Dpa-AR-NH2 10 μM, 4 hours at room temperature; tested at 1, 10, 100 and 200 μM
Chain of MMP-7 (P09237 95-267): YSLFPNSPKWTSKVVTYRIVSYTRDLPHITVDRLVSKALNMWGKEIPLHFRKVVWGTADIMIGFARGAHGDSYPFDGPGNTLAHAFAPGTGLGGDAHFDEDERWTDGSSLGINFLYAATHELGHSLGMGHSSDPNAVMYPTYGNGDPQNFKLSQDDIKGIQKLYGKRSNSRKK
Experimental: as §1
Recombinant MMP-7 expressed in E. Coli was obtained from Merck-Millipore (catalog number 44270). Mca-PLGL-Dpa-AR-NH2 (fluorogenic peptide substrate) was obtained from R&D Systems (catalog number ES001).
Preparation of the MMP-7 for the activity assay: MMP-7 was provided as a stock solution (2.1 mg/mL). The enzyme was diluted in water to a final concentration of 0.005 mg/mL.
MMP-7 peptide substrate was provided as a solid (1 mg). A 4 mM stock solution of the substrate in DMSO was obtained by adding 214.7 μL of DMSO. After which, a 100 μM solution of substrate was prepared in 1× reaction buffer.
Procedure: The enzymatic assays were performed in 96-well microtiter plate, which allowed simultaneous monitoring of multiple reactions. For each reaction, 84.6 μL of 1× reaction buffer (pH 7.6), 3.4 μL of MMP-7 (final concentration 8.3 nM) and 2 μL of the corresponding new compound were added to each well. A stock solution of new compound was prepared in DMSO (100 mM), and dilutions were prepared from this stock solution with DMSO. Finally, to the mixture contained in each well 10 μL of the substrate were added (final concentration 10 μM). The reaction was incubated for 4 hours at room temperature in an orbital shaker (90 rpm).
as §12, §13

MMP-9 [2] = experiment: MMP-9 inhibition assay (fluorimetric, DQ gelatin substrate); conditions: recombinant MMP-9 (Merck-Millipore for examples 1 to 9 and comparative examples; Enzo for examples 10 to 16), DQ gelatin 50 μg/mL, 4 hours at room temperature, pH 7.6
Experimental: as §1, §2, §3, §4, §5, §6, §7, §8, §9, §10, §11

| IC50 (MMP-1) [µM] | IC50 (MMP-7) [µM] | IC50 (MMP-9 [2]) [µM] | Compound | IC50 (MMP-9 [1]) [nM] | MMP-1 IC50 (MMP-1) [nM] |
| --- | --- | --- | --- | --- | --- |
| 6.68 | 3.48 | 0.601 | CCC(C)[C@@H](C(=O)N[C@@H](CCNC(=O)c1cc(F)cc(F)c1)C(=O)NO)N(C)C(=O)[C@@H]1CCCN1C(=O)CC(C)C (stereo partly drawn) [Example 5, (2S)—N-[(1S)-1-[[(1S)-3-[(3,5-difluorobenzoyl)amino]-1-(hydroxycarbamoyl)propyl]carbamoyl]-2-methyl-butyl]-N-methyl-1-(3-methylbutanoyl)pyrrolidine-2-carboxamide] |  |  |
| 11.4 | 40.3 | 0.506 | CCC(C)[C@@H](C(=O)N[C@@H](CCNC(=O)c1cc(F)cc(F)c1)C(=O)NO)N(C)C(=O)[C@@H]1CCCN1C(=O)CCCOc1ccccc1 (stereo partly drawn) [Example 9, (2S)—N-[(1S)-1-[[(1S)-3-[(3,5-difluorobenzoyl)amino]-1-(hydroxycarbamoyl)propyl]carbamoyl]-2-methyl-butyl]-N-methyl-1-(4-phenoxybutanoyl)pyrrolidine-2-carboxamide] |  |  |
| 6.61 | 8.08 | 0.223 | CCC(C)[C@@H](C(=O)N[C@@H](CCNC(=O)c1cc(F)cc(F)c1)C(=O)NO)N(C)C(=O)[C@@H]1CC(F)(F)CN1C(=O)CCCOc1ccccc1 (stereo partly drawn) [Example 10, (2S)—N-[(1S)-1-[[(1S)-3-[(3,5-difluorobenzoyl)amino]-1-(hydroxycarbamoyl)propyl]carbamoyl]-2-methyl-butyl]-4,4-difluoro-N-methyl-1-(4-phenoxybutanoyl)pyrrolidine-2-carboxamide] |  |  |
| 200 | 50.4 | 0.339 | CCC(C)[C@@H](C(=O)N[C@@H](CCNC(=O)c1cc(F)cc(F)c1)C(=O)NO)N(C)C(=O)[C@@H]1CCCN1C(=O)CCN(C)C(C)=O (stereo partly drawn) [Example 13, (2S)-1-[3-[acetyl(methyl)amino]propanoyl]-N-[(1S)-1-[[(1S)-3-[(3,5-difluorobenzoyl)amino]-1-(hydroxycarbamoyl)propyl]carbamoyl]-2-methyl-butyl]-N-methyl-pyrrolidine-2-carboxamide] |  |  |
| 4.94 | 31.4 | 0.301 | CCC(C)[C@@H](C(=O)N[C@@H](CCNC(=O)c1cc(F)cc(F)c1)C(=O)NO)N(C)C(=O)[C@@H]1CCCN1C(C)=O (stereo partly drawn) [Example 2, (2S)-1-acetyl-N-[(1S)-1-[[(1S)-3-[(3,5-difluorobenzoyl)amino]-1-(hydroxycarbamoyl)propyl]carbamoyl]-2-methyl-butyl]-N-methyl-pyrrolidine-2-carboxamide] |  |  |

Second part, the compound before the results:

| Compound | IC50 (MMP-1) [µM] | IC50 (MMP-7) [µM] | IC50 (MMP-9 [2]) [µM] | IC50 (MMP-9 [1]) [nM] | MMP-1 IC50 (MMP-1) [nM] |
| --- | --- | --- | --- | --- | --- |
| CCCCCC(=O)N1CCC[C@H]1C(=O)N(C)[C@H](C(=O)N[C@@H](CCNC(=O)c1ccccc1)C(=O)NO)C(C)CC (stereo partly drawn) [Example 15, (2S)—N-[(1S)-1-[[(1S)-3-benzamido-1-(hydroxycarbamoyl)propyl]carbamoyl]-2-methyl-butyl]-N-methyl-1-hexanoyl-pyrrolidine-2-carboxamide] (Hexanoyl-Pro-[NMeIle(3ξ)]-[Dab](Bz)-{NHOH}) | 10.8 | 41.2 |  | 702 |  |
| CCCCCC(=O)N1C[C@H](F)C[C@H]1C(=O)N(C)[C@H](C(=O)N[C@@H](CCNC(=O)c1ccccc1)C(=O)NO)C(C)CC (stereo partly drawn) [Example 16, (2S,4R)—N-[(1S)-1-[[(1S)-3-benzamido-1-(hydroxycarbamoyl)propyl]carbamoyl]-2-methyl-butyl]-4-fluoro-N-methyl-1-hexanoyl-pyrrolidine-2-carboxamide] (Hexanoyl-[Pro(trans-4-F)]-[NMeIle(3ξ)]-[Dab](Bz)-{NHOH}) |  | 1 |  | 10 | <1000 |
| CC(=O)N1CCC[C@H]1C(=O)N[C@@H](CCC(N)=O)C(=O)N[C@@H](Cc1c[nH]c2ccccc12)C(=O)NO [Example C17, (2S)-2-[[(2S)-1-acetylpyrrolidine-2-carbonyl)amino]-N-[(1S)-2-(hydroxyamino)-1-(1H-indol-3-ylmethyl)-2-oxo-ethyl]pentanediamide, reference compound] (Ac-Pro-Gln-Trp-{NHOH}) | 6.1 | > 2000 | 3500 |  |  |
| CC(=O)N1CCC[C@H]1C(=O)N(C)[C@@H](CCC(N)=O)C(=O)N[C@@H](Cc1c[nH]c2ccccc12)C(=O)NO [Example C20, (2S)-2-[[(2S)-1-acetylpyrrolidine-2-carbonyl]-methyl-amino]-N-[(1S)-2-(hydroxyamino)-1-(1H-indol-3-ylmethyl)-2-oxo-ethyl]pentanediamide, reference compound] (Ac-Pro-[NMeQ]-Trp-{NHOH}) | > 2000 | > 2000 | 22 |  |  |
| CCCC(=O)N(C)[C@@H](Cc1c[nH]c2ccccc12)C(=O)N(C)[C@@H](CC(C)C)C(=O)N1CCC[C@H]1C(=O)N(C)[C@H](C(=O)N[C@@H](CCNC(=O)c1cc(F)cc(F)c1)C(=O)NO)C(C)CC (stereo partly drawn) [Example 14, (2S)-1-[(2S)-2-[[(2S)-2-[butanoyl(methyl)amino]-3-(1H-indol-3-yl)propanoyl]-methyl-amino]-4-methyl-pentanoyl]-N-[(1S)-1-[[(1S)-3-[(3,5-difluorobenzoyl)amino]-1-(hydroxycarbamoyl)propyl]carbamoyl]-2-methyl-butyl]-N-methyl-pyrrolidine-2-carboxamide] (Butyryl-[NMeW][NMeL]P[NMeIle(3ξ)][Dab](Benzoyl(3,5-F2))-{NHOH}) | 6.07 | 61 | 0.046 |  |  |
| CCC(C)[C@@H](C(=O)N[C@@H](CCNC(=O)c1ccc(F)cc1)C(=O)NO)N(C)C(=O)[C@@H]1CCCN1C(C)=O (stereo partly drawn) [Example 1, (2S)-1-acetyl-N-[(1S)-1-[[(1S)-3-[(4-fluorobenzoyl)amino]-1-(hydroxycarbamoyl)propyl]carbamoyl]-2-methyl-butyl]-N-methyl-pyrrolidine-2-carboxamide] |  | 23 | 1.26 |  | <1000 |
